Numbering of substitutions follows the chain as printed.
Columns and labels:
[1] = molecular target: T1, human WT GIP receptor (E354) (Homo sapiens, UniProt P48546); assay: IP1 accumulation (IP-one Gq kit), WT GIP receptor; format: cell-based
T1 construct: host or cells: Cos7 cells, transient transfection with PEI, pcDNA3.1+
T1 sequence (P48546 22-466): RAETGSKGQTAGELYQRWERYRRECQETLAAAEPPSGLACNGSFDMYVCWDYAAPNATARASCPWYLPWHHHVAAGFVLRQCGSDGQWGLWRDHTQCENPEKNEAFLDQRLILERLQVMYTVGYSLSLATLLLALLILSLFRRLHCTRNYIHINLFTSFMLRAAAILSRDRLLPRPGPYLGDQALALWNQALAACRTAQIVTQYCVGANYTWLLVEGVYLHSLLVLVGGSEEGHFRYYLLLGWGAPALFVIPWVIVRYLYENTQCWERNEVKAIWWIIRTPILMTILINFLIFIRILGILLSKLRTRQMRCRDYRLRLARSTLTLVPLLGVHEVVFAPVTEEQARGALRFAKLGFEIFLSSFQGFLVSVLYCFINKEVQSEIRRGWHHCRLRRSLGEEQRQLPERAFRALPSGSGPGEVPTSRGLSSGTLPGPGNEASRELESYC
Experimental: (§1) Using a PCR thermocycler (Applied Biosystems PCR system 9700, ThermoFisher, CA, United States), the DNA was initially denatured at 95°C for 2 min, followed by 25 cycles of 98°C for 30 s, 66°C for 15 s and 72°C for 3.5 min. Following the PCR reaction, 1 μL Dpn1 was added, and the DNA transformed into XL.10-gold Ultracompetent E. coli (Agilent Technologies, CA, United States). Plasmid DNA was purified using the NucleoBond Xtra Maxi kit (Macherey-Nagel, Germany) and sequenced prior to use (Centre for Genomics, Proteomics and Metabolomics, University of Auckland).
Cos7 cells were cultured and transfected as previously described ([Tasma et al., 2022]; [Bower et al., 2018]). […]
The IP-one Gq assay kit (Cisbio, PerkinElmer) was used to quantify accumulated myo-inositol-1-phosphate (IP1), a by-product of IP3 produced after receptor-mediated Gαq activation in Cos7 cells, as previously described ([Tasma et al., 2022]; [Bower et al., 2018]). […] Samples were processed as previously described and read using an Envision plate reader (PerkinElmer). IP1 concentrations were determined from a standard curve generated in duplicate.
(§2) All data were plotted and analyzed using GraphPad Prism 8.0 (GraphPad Software Inc.). […]

[2] = molecular target: T1, human WT GIP receptor (E354); assay: AKT phosphorylation (AlphaLISA pAKT Ser473), WT GIP receptor; format: cell-based; details: for Emax: read-out: Emax pAKT
Experimental: as §1
(§3) Cos7 cells were cultured and transfected as previously described ([Tasma et al., 2022]; [Bower et al., 2018]). Briefly, Cos7 cells were cultured in DMEM supplemented with 8% fetal bovine serum (FBS) in a 37°C humidified incubator with 5% CO2 and seeded into 96-well SpectraPlates at a density of 20,000 cells per well 24 h prior to transfection. […] All plasmid sequences were verified prior to use.
(§4) Phosphorylated (p) Protein Kinase B (AKT), extracellular signal-regulated kinase 1/2 (ERK1/2) and CREB were detected using the AlphaLISA SureFire Ultra pAKT (Ser473), AlphaLISA SureFire Ultra pERK1/2 (Thr202/Tyr204) or AlphaLISA SureFire Ultra pCREB (Ser133) assay kit (PerkinElmer) as per the manufacturer’s protocol. Briefly, Cos7 cells were serum-starved in assay media (DMEM +0.1% BSA) for 4 h at 37°C with 5% CO2 prior to peptide stimulation. Peptides were serially diluted in assay media, and cells were incubated with assay media alone or each concentration of peptide for 15 min. FBS (50%) in pERK1/2 and pAKT or 50 μM forskolin in pCREB assays were used as positive controls. Media was then aspirated, and the cells were lysed in 40 μL of the kit lysis buffer, followed by shaking for 10–15 min at room temperature. Ten microliters of cell lysate was transferred to a white 384-well OptiPlate. […] Plates were read on an Envision plate reader (PerkinElmer). […]
as §2

[3] = molecular target: T2, human GIP receptor E354Q variant (Homo sapiens, UniProt P48546, E354Q); assay: AKT phosphorylation (AlphaLISA pAKT Ser473), E354Q GIP receptor; format: cell-based; details: for Emax: read-out: Emax pAKT
T2 construct: expressed in transfected cells; host or cells: Cos7 cells, transient transfection with PEI, pcDNA3.1+; mutant plasmid made in house from the purchased WT construct
T2 sequence (P48546 22-466 E354Q): T1 sequence (P48546 22-466) with E333Q
Experimental: as §1, §3, §4, §2

[4] = molecular target: T2, human GIP receptor E354Q variant; assay: ERK1/2 phosphorylation (AlphaLISA pERK1/2 Thr202/Tyr204), E354Q GIP receptor; format: cell-based; details: read-out: Emax pERK1/2
Experimental: as §1
(§5) Cos7 cells were cultured and transfected as previously described ([Tasma et al., 2022]; [Bower et al., 2018]). Briefly, Cos7 cells were cultured in DMEM supplemented with 8% fetal bovine serum (FBS) in a 37°C humidified incubator with 5% CO2 and seeded into 96-well SpectraPlates at a density of 20,000 cells per well 24 h prior to transfection. […]
(§6) Phosphorylated (p) Protein Kinase B (AKT), extracellular signal-regulated kinase 1/2 (ERK1/2) and CREB were detected using the AlphaLISA SureFire Ultra pAKT (Ser473), AlphaLISA SureFire Ultra pERK1/2 (Thr202/Tyr204) or AlphaLISA SureFire Ultra pCREB (Ser133) assay kit (PerkinElmer) as per the manufacturer’s protocol. […] Plates were read on an Envision plate reader (PerkinElmer). […]
as §2

[5] = molecular target: T1, human WT GIP receptor (E354); assay: CREB phosphorylation (AlphaLISA pCREB Ser133), WT GIP receptor; format: cell-based; details: for Emax: read-out: Emax pCREB
Experimental: as §1, §3, §4, §2

[6] = molecular target: T2, human GIP receptor E354Q variant; assay: CREB phosphorylation (AlphaLISA pCREB Ser133), E354Q GIP receptor; format: cell-based; details: read-out: Emax pCREB
Experimental: as §1, §5, §6, §2

albumin = details: cited from earlier work
Description: Understanding the signalling of GIP receptors is essential to elucidating their physiological effects and exploiting this receptor as a drug target. The GIP receptor is often reported to couple to Gαs alone ([Oduori et al., 2020b]). […] This indicates potential coupling to Gαq, as IP1 is a stable by-product of IP3 ([Garbison et al., 2004]). The induction of cAMP accumulation by the endogenous GIP agonists was similar to previous studies ([Hansen et al., 2016]; [Yuliantie et al., 2021]). Tirzep ...

[7] = molecular target: T1, human WT GIP receptor (E354); assay: ERK1/2 phosphorylation (AlphaLISA pERK1/2 Thr202/Tyr204), WT GIP receptor; format: cell-based; details: read-out: Emax pERK1/2
Experimental: as §1, §5, §6, §2

| SMILES | Emax ([1]; read-out: Emax IP1, % of maximal response) [%] | Emax [2] [%] | Emax [3] [%] | Emax [4] [%] | Emax [5] [%] | Emax [6] [%] | albumin binding (albumin) | EC50 ([1]; WT, Cos7, 90 min, 37°C, DMEM + 0.1% BSA + 1% 10 mM LiCl, mean ± s.e.m., n = 5, read-out: pEC50 IP1 (converted)) [nM] | EC50 ([2]; WT, Cos7, 15 min, DMEM + 0.1% BSA, mean ± s.e.m., n = 3) [nM] | EC50 ([3]; E354Q, Cos7, 15 min, DMEM + 0.1% BSA, mean ± s.e.m., n = 3) [nM] | Emax [7] [%] | EC50 ([5]; WT, Cos7, 15 min, DMEM + 0.1% BSA, mean ± s.e.m., n = 3, read-out: pEC50 pCREB (converted)) [nM] |
| --- | --- | --- | --- | --- | --- | --- | --- | --- | --- | --- | --- | --- |
| CC[C@H](C)[C@H](NC(=O)[C@H](CC(C)C)NC(=O)[C@H](Cc1c[nH]c2ccccc12)NC(=O)[C@H](CCC(N)=O)NC(=O)[C@@H](NC(=O)[C@H](Cc1ccccc1)NC(=O)[C@H](C)NC(=O)[C@H](CCCCNC(=O)COCCOCCNC(=O)COCCOCCNC(=O)CC[C@H](NC(=O)CCCCCCCCCCCCCCCCCCC(=O)O)C(=O)O)NC(=O)[C@H](CCC(N)=O)NC(=O)[C@H](C)NC(=O)[C@@H](NC(=O)[C@H](CCCCN)NC(=O)[C@H](CC(=O)O)NC(=O)[C@H](CC(C)C)NC(=O)C(C)(C)NC(=O)[C@@H](NC(=O)[C@H](CO)NC(=O)[C@H](Cc1ccc(O)cc1)NC(=O)[C@H](CC(=O)O)NC(=O)[C@H](CO)NC(=O)[C@@H](NC(=O)[C@H](Cc1ccccc1)NC(=O)[C@@H](NC(=O)CNC(=O)[C@H](CCC(=O)O)NC(=O)C(C)(C)NC(=O)[C@@H](N)Cc1ccc(O)cc1)[C@@H](C)O)[C@@H](C)O)[C@@H](C)CC)[C@@H](C)CC)C(C)C)C(=O)N[C@@H](C)C(=O)NCC(=O)NCC(=O)N1CCC[C@H]1C(=O)N[C@@H](CO)C(=O)N[C@@H](CO)C(=O)NCC(=O)N[C@@H](C)C(=O)N1CCC[C@H]1C(=O)N1CCC[C@H]1C(=O)N1CCC[C@H]1C(=O)N[C@@H](CO)C(N)=O [Tirzepatide] | 54.9 | 87.7 ± 2.6 | 51.9 ± 8.95 | 80.2 ± 17.3 | 91.5 ± 10.9 | 59.4 ± 34.8 | binds to albumin |  |  |  |  |  |
| CC[C@H](C)[C@H](NC(=O)[C@H](CO)NC(=O)[C@H](Cc1ccc(O)cc1)NC(=O)[C@H](CC(=O)O)NC(=O)[C@H](CO)NC(=O)[C@@H](NC(=O)[C@H](Cc1ccccc1)NC(=O)[C@@H](NC(=O)CNC(=O)[C@H](CCC(=O)O)NC(=O)[C@H](C)NC(=O)[C@@H](N)Cc1ccc(O)cc1)[C@@H](C)O)[C@@H](C)CC)C(=O)N[C@@H](C)C(=O)N[C@@H](CCSC)C(=O)N[C@@H](CC(=O)O)C(=O)N[C@@H](CCCCN)C(=O)N[C@H](C(=O)N[C@@H](Cc1c[nH]cn1)C(=O)N[C@@H](CCC(N)=O)C(=O)N[C@@H](CCC(N)=O)C(=O)N[C@@H](CC(=O)O)C(=O)N[C@@H](Cc1ccccc1)C(=O)N[C@H](C(=O)N[C@@H](CC(N)=O)C(=O)N[C@@H](Cc1c[nH]c2ccccc12)C(=O)N[C@@H](CC(C)C)C(=O)N[C@@H](CC(C)C)C(=O)N[C@@H](C)C(=O)N[C@@H](CCC(N)=O)C(=O)N[C@@H](CCCCN)C(N)=O)C(C)C)[C@@H](C)CC [GIP(1-30)NH2] |  | 97.1 ± 4.56 | 50.9 ± 1.72 | 73.9 ± 9.75 | 117 ± 8.75 | 70.7 ± 32.9 |  | 1.62 | 1.48 | 0.813 | 117 ± 3.91 | 0.0631 |

From PMC11502443 (Frontiers in Pharmacology, 2024)
